Laboratory results from PubChem BioAssay (NCI).
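How tested: cells in 96-well plates exposed to compound for 48 hours at five concentrations. The concentration for 50% growth inhibition is given as GI50. Definition used: TGI = concentration required for complete inhibition of growth.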

Columns and labels:
Test in all cases: inhibition of tumour cell growth, NCI panel, 48 h
HOP-92 NSCLC = test system: HOP-92 NSCLC
OVCAR-8 ovarian = test system: OVCAR-8 ovarian
NCI-H460 lung = test system: NCI-H460 lung
HCT-116 colon = test system: HCT-116 colon
NCI-H23 lung = test system: NCI-H23 lung
LOX IMVI melanoma = test system: LOX IMVI melanoma
SF-295 CNS = test system: SF-295 CNS
U251 CNS = test system: U251 CNS
RXF 393 renal = test system: RXF 393 renal
SK-OV-3 ovarian = test system: SK-OV-3 ovarian

SMILES | GI50 (HOP-92 NSCLC) [µM] | TGI (HOP-92 NSCLC) [µM] | GI50 (OVCAR-8 ovarian) [µM] | TGI (OVCAR-8 ovarian) [µM] | GI50 (NCI-H460 lung) [µM] | TGI (NCI-H460 lung) [µM] | GI50 (HCT-116 colon) [µM] | TGI (HCT-116 colon) [µM] | GI50 (NCI-H23 lung) [µM] | TGI (NCI-H23 lung) [µM] | GI50 (LOX IMVI melanoma) [µM] | TGI (LOX IMVI melanoma) [µM] | GI50 (SF-295 CNS) [µM] | TGI (SF-295 CNS) [µM] | GI50 (U251 CNS) [µM] | TGI (U251 CNS) [µM] | GI50 (RXF 393 renal) [µM] | TGI (RXF 393 renal) [µM] | GI50 (SK-OV-3 ovarian) [µM] | TGI (SK-OV-3 ovarian) [µM]
CN1CCN(Cc2ccc(-c3cc4ncnc(Nc5ccc(OCc6cccc(F)c6)c(Cl)c5)c4s3)o2)CC1 | 2.76 | 6.51 | 4.53 | 9.62 | 4.56 | 8.85 | 3.62 | 7.42 | 4.29 | 8.44 | 3.66 | 8.07 | 5.06 | 10.4 | 3.34 | 7.12 | 3.33 | 7.52 | 4.67 | 9.97
CC(C)(C)[Si](C)(C)OCC1CCC(n2cnc3c(NC(=O)c4ccccc4)ncnc32)O1 (stereo not given) | – | 31.6 | – | 60.2 | – | 32 | – | 33.5 | – | 37.4 | – | 37.1 | – | 35.8 | – | 32.9 | – | 37.8 | – | 44.9
CCNC(=O)C[C@@H]1N=C(c2ccc(Cl)cc2)c2cc(OC)ccc2-n2c(C)nnc21 | 0.548 | > 100 | 8.9 | > 100 | > 100 | > 100 | 5.73 | > 100 | 13.5 | > 100 | 0.844 | > 100 | – | > 100 | > 67.8 | > 100 | 8.9 | > 100 | 2.37 | > 100
C[Si](C)(C)C#CCO[Si](C)(C)C | – | 44.3 | – | > 100 | – | > 100 | – | > 100 | – | > 100 | – | 19.9 | – | > 100 | – | > 100 | – | > 100 | – | > 100
COC(=O)c1c[nH]cc1CCc1c[nH]cc1C(=O)OC | – | > 100 | – | > 100 | – | > 100 | – | > 100 | – | > 100 | – | > 100 | – | > 100 | – | > 100 | – | > 100 | – | > 100
O=C(Nc1ccc(-c2nc3cc4ccccc4cc3[nH]2)cc1)c1cccc(Br)c1 | 4 | 17.8 | 3.43 | 18.9 | 3.36 | 13 | 3.89 | > 100 | 19.2 | 50.3 | 6.85 | 20.1 | 20.7 | 48.1 | 5.23 | 19 | 1.9 | 8.28 | 16.3 | 32.8
CC(=O)N(C)OC(=O)CC(=O)c1ccccc1 | – | > 100 | – | > 100 | – | > 100 | – | > 100 | – | > 100 | – | > 100 | – | > 100 | – | > 100 | – | > 100 | – | > 100
CCN1C(=O)C/C(=C\C(C)=O)Nc2ccccc21 | – | > 100 | – | > 100 | – | > 100 | – | > 100 | – | > 100 | – | > 100 | – | > 100 | – | > 100 | – | > 100 | – | > 100
O=C(Nc1ccc(Cl)c([N+](=O)[O-])c1)Nc1nc2ccccc2s1 | 2.34 | 7.06 | 3.33 | 17.7 | 2.93 | 9.45 | 3.57 | 14.9 | 2.4 | 9.05 | 3.98 | 21 | 2.01 | 5.41 | 3.36 | 13.4 | 3.76 | 11.4 | 2.6 | 8.46
C/C(=N\N=C(N)N)C(CN(CC(C)C)CC(C)C)C(=O)Nc1ccc(C)cc1C (stereo not given) | – | > 100 | – | > 100 | – | > 100 | – | > 100 | – | > 100 | – | > 100 | – | > 100 | – | > 100 | – | > 100 | – | > 100
COc1cc2oc(=O)cc(C)c2cc1[N+](=O)[O-] | – | 57.1 | – | 40.7 | – | > 100 | – | 32.3 | – | 51.5 | – | 28.6 | – | > 100 | – | > 100 | – | 33.8 | – | > 100
C=CC1(C)CCC(C(C)C(=O)C(C=C(C)C)OC(C)=O)C12C(=O)Oc1ccccc1C2=O (stereo not given) | – | > 100 | – | > 100 | – | > 100 | – | > 100 | – | > 100 | – | > 100 | – | > 100 | – | > 100 | – | > 100 | – | > 100
Cc1ccc(Nc2nc(NCCO)c3ccccc3n2)cc1C | 1.97 | 8.03 | 5.44 | 25.9 | 4.44 | 16.7 | 3.95 | 14.5 | 9.74 | 22.5 | 3.55 | 12.4 | 4.37 | 17.5 | 2.75 | 12.1 | 3.14 | 13.7 | 14.2 | 27.6
O=C(O)c1ccc(S(=O)(=O)c2ccccc2)c([N+](=O)[O-])c1 | – | > 100 | – | – | – | > 100 | – | > 100 | – | > 100 | – | > 100 | – | > 100 | – | > 100 | – | > 100 | – | > 100
CCCCCCCCCCCCN1C(C)=CS/C1=C\C=C\c1scc(C)[n+]1CCCCCCCCCCCC | 0.864 | 3.77 | – | – | 1.43 | 3.51 | – | – | 0.999 | 4.99 | 1.79 | 5.96 | 1.53 | 5.35 | – | – | 1.42 | 5.29 | 2.74 | 22.9
OCCN(CCO)N=Nc1ccc(-c2nc3ccccc3[nH]2)cc1 | 3.02 | 23.8 | 24.7 | 53.9 | 13.7 | 29.5 | 25.3 | 64.3 | – | – | 12.5 | 25.5 | 17.4 | 36 | 17.6 | 37.4 | 27.9 | 65 | > 100 | > 100
